From patent US20230235409A1, “METHOD OF PREDICTING THERAPEUTIC RESPONSE AND PROGNOSIS OF METASTATIC BREAST CANCER TO CHEMOTHERAPEUTIC AGENTS, AND TREATING METASTATIC BREAST CANCER” (Samsung Life Public Welfare Foundation, priority 2021, published 2023)

Tested on: premenopausal HR+/HER2− metastatic breast cancer
Assay: Kaplan Meier PFS analysis of capecitabine-treated patients by five-gene marker combination
Type: in vivo
Description: Among 141 premenopausal HR+/HER2− MBC patients, a tumor sample was isolated from a group (n=62) administered with capecitabine, and sequencing was performed on the sample. CancerSCAN™ targeted panel sequencing was performed to detect 375 cancer-related gene variations, and transcriptome analysis was performed to detect overall gene expression patterns.
A univariate Cox proportional hazard model was analyzed for each genetic variation/CNV, the p-value derived by the log-rank test was defined as a p-value cutoff of 0.05 as the criterion for a statistically significant difference, and 30 biomarkers with p-value<0.05 were selected as candidate markers. […] In other words, the description of “NF2+FAT3” includes the case where there exists a mutation in either NF2 or FAT3 gene.

Structure (SMILES): CCCCCOC(=O)Nc1nc(=O)n([C@@H]2O[C@H](C)[C@@H](O)[C@H]2O)cc1F [capecitabine]
- median PFS (mutant group (mutation in NF2, FAT3, LRP1B, PTEN or RAD50), capecitabine-administered group n=62, FIG. 3): 12 months
- risk of mutant group relative to normal group (WT), PFS (mutant group vs WT (no mutation in all five genes), capecitabine-administered patients, FIG. 3): about 5 times
